Series [1] addresses T1, Dehal1 (Homo sapiens, UniProt Q6PHW0).
T1 construct: expressed in transfected cells; host or cells: HEK293
T1 sequence (Q6PHW0 1-289): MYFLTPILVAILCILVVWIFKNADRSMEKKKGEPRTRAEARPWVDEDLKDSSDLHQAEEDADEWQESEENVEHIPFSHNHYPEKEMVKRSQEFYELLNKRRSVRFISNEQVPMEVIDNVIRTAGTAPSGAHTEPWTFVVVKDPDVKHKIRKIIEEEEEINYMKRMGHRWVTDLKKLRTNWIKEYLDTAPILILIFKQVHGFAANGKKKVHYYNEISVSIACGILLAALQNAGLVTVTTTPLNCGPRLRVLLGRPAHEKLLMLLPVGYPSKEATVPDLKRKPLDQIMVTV
Kind of series: In vitro Dehal1 inhibition assay (inhibition of 125I-MIT deiodination in homogenates of DEHAL1-transfected HEK293 cells). The format is biochemical. As to the method: Human embryonic kidney (HEK293) cells were grown in Dulbecco's modified Eagle medium (Gibco) supplemented with 10% fetal calf serum and 0.1 mM flavin mononucleotide (FMN, MP Biochemicals) in 6-well plates. At 50% confluency, cells were transfected with 1 µg of wild-type or mutant DEHAL1 plasmid or empty pcDNA3.1 plasmid, using Fugene6 (Roche). After 24 h incubation, cells were washed with 1 ml PBS and collected in 0.5 ml PED buffer (0.1 M phosphate, pH 7.2, 2 mM EDTA, 1 mM dithiothreitol) per well and kept on ice. Samples were sonicated twice for 10 sec using Soniprep150, frozen on dry ice-ethanol and stored at -80 °C. For experiments testing FMN-response, culture medium was supplemented with 0-2 mM FMN.
The experiments follow described methods to determine the MIT deiodination capacity of Dehal1-transfected cells (8), adding the candidate chemicals to test their capacity to inhibit such reaction. Basically, labelled [^125I]MIT was prepared by radioiodination of L-tyrosine (Sigma-Aldrich) with ^125I - (specific activity: 15 Ci/mg, Amersham Biosciences) using the chloramine-T method and purified by chromatography on cation-exchange resin (Dowex 50WX2-200, Sigma-Aldrich). […] Incubations contained […] [^125I]MIT, 0.1 µM unlabeled MIT and 10-25 µg cell homogenate protein in a final volume of 0.1 ml PED buffer. Reactions were started by the addition of NADPH (final concentration 0.1 mM), and the mixtures were incubated for 60 min at 37°C. Reactions were stopped by the addition of 0.9 ml of 10% acetic acid on ice. Samples were applied to 2 ml Dowex 50WX2-200 columns, and successively eluted with 3x1 ml 10% acetic acid (containing eluted iodide), 1 ml water, and 4×1ml 1 M NH4OH (containing iodotyrosines). Radioactivity was measured in each fraction in a NE1600 gamma counter (NE Technologies) and percentage deiodination was calculated. Protein concentrations in cell homogenates were measured by Bradford's assay; iodotyrosine deiodinase activity was corrected for the slight 1251 - production in empty pcDNA3.1-transfected cell homogenates and expressed per mg protein.
For the general screen of inhibition potential of each compound, 10 µM unlabeled chemicals tested (Sigma-Aldrich) were added to the incubation mixture together with […] unlabeled MIT with no further modifications on the protocol above. Said chemical tested were: Tetrabromobisphenol A (TBBPA), Bisphenol A (BPA), Pentachlorophenol (PCP), tetraiodophenol (TIP), Tetrabromophenol (TBP), tetrachlorophenol (TCP), tetraafluorophenol (TFP), Di-iodo-nitro-Pheol (DINP), Di-chloro-nitrophenol (DCNP), Dibromophenol (DBP), Diclorophenol (DCP), iodophenol (IP), Bromophenol (BP), Fluorophenol (FP), phenol (P), Tyrosien(Tyr), mononitrotyrosine (MNT), monochlorotyrosine (MCT), Monoiodotyrosine (MIT), Diiodotyrosine (DIT). As negative controls: empty pcDNA-transfected cells, DMSO, NaOH and Buffer.
Crude deiodination capacity obtained in individual chemical-containing mixture was calculated, including the vehicle (DMSO)-containing mixture. Percentage inhibition of each compound was determined with respect to the vehicle containing mixture. For inhibition curves of particular compounds, equimolar concentrations of unlabeled MIT (0, 0.1, 1, 10, 100 µM) and BPA, TBBPA, PCP and MNT were used, and % inhibition of individual compounds was calculated as above.

The subject of series [2] is thyroid hormone axis. Kind of series: In vivo administration to mice: hormonal and biochemical effects in plasma and urine. Particulars: for UIC / UIC % variation: urine. As to the method: Mice. Female wild type mice from C57BI/6 J strain were purchased from Charles River company. Animals were maintained under standard conditions of temperature (22-24°C), humidity (40-50%), 12-12 hours of dark/light cycle, water and rodent diet ad libitum. Five months old female mice were acclimatized prior to the experiment and handled based on animal bioethical protocols. The experimental procedures were approved by the Research Ethical Committee of the Autonomous University of Madrid and the competent department of Comunidad de Madrid. Tetrabromobisphenol A powder (TBBPA, 97% purity) obtained through Sigma-Aldrich was dissolved in a vehicle containing 25% ethanol and 75% of peanut oil. A TBBPA dose of 500 mg/kg of body weight was injected subcutaneously for 7 days. Blood and urine collection were performed at the end of the experiment (Fig. 1).
Blood, urine and tissue collection. At day 7, blood was collected from cardiac puncture in heparinized tubes and centrifuged (2000 g for 10 minutes) to isolate plasma. Urine was collected using hydrophobic sand (Coastline Global, USA). Samples were kept at -20°C until used. For tissue isolation, mice were kept under deep anesthesia (Sevorane) and euthanized by cervical dislocation.
Previously published methods were modified to allow the simultaneous quantification of MIT, DIT, T3, T4.
Sample preparation: 100 µL of urine/plasma were added with suitable amounts of stable isotope-labeled internal standards (5.4 pmol 13C9-MIT, 4.0 pmol 13C9-DIT, 2.8 pmol 13C6-T3, 2.4 pmol 13C6-T4), vortexed, stored 30 min at room temperature to equilibrate, and deproteinized with the addition of 300µL of cold-acetone and the storage at 4°C for 30 min. After centrifugation at 22780 × g for 10 min, supernatants were dried at 40 °C under a gentle stream of nitrogen, derivatized with 200 µL of 3.0 N hydrochloric acid in n-butanol and incubated for 45 min at 60 °C, for the formation of the corresponding butyl esters of tyrosines, thyroid hormones, and their internal standards. After further evaporation to dryness, the sample was reconstituted with 500 µL of 0,1 M potassium buffer (pH=4) and loaded onto Agilent (Santa Clara, CA, USA) Bond-Elut Certify 130 mg SPE cartridges, to perform the extraction according to the procedure described by Saba et al.. The eluate was dried once again under nitrogen, the dried residue was reconstituted with 100 µL of acetonitrile/0.1 M hydrochloric acid (50/50 by volume), and 1µL of it was injected into the HPLC-MS-MS system. Calibration curves ranged from 0.1 to 100.0 ng/mL and were daily prepared by serial dilution in methanol and derivatized with samples.
Instrument layout: AB-Sciex (Concord, Ontario, Canada) QTRAP 6500+ triple quadrupole mass spectrometer with ESI source, coupled to an Agilent (Santa Clara, CA, USA) 1290 UHPLC system, fitted with a 110 Å, 2x50 mm, 3µm particle size, Gemini C18 column (Phenomenex, Torrance, CA).
Operative conditions: the chromatographic separation was carried out at 400 µL/min as a flow rate, using methanol/acetonitrile (20/80, by volume) added with 0.1% formic acid (solvent A) and water containing 0.1% formic acid (solvent B). The elution gradient was the following: 95 % solvent B from 0 to 3 min; 35 % solvent B from 3 to 8.5 min; 0 % solvent B from 8.5 to 9 min; 0 % solvent B from 9 to 11 min; 95 % solvent B from 11 to 14 min (equilibration step). […] Three transitions were used to monitor each compound and internal standard: that one with the highest signal/noise ratio was used as a quantifier (Q), while the other two as qualifiers (q).

Where [3] appears, read: dose-response inhibition assay, 0-100 µM.
[4] abbreviates: general screen, compound at 10 µM.
Where [5] appears, read: MNT 1mg/Kg b.w./day, for 7 days.
[6] abbreviates: vs WT, MNT 1mg/Kg b.w./day, for 7 days.
Setting [7] is: read-out: inhibition of Dehal1 activity.
Setting [8] is: TBBPA 500 mg/kg b.w/day subcutaneously for 7 days.
The mark [9] stands for this setting: TBBPA 500 mg/kg b.w/day subcutaneously for 7 days, plasma.
[10] abbreviates: vs WT, TBBPA 500 mg/kg b.w/day for 7 days.
[11] abbreviates: vs WT, TBBPA 500 mg/kg b.w/day for 7 days, plasma.

Each structure is given as a SMILES string. Like-named read-outs stand apart in the source and are kept apart here.

Consider `CC(C)(c1ccc(O)cc1)c1ccc(O)cc1` [BPA, Bisphenol A, reference compound], for which the inhibition capacity entry in series [1] (setting [3]) is “no inhibition capacity”.
With `N[C@@H](Cc1cc(I)c(O)c(I)c1)C(=O)O` [DIT, Diiodotyrosine, reference compound], the “inhibition of labeled-MIT deiodination” value in series [1] (setting [4]) is recorded as “maximal inhibition”.
Still for that read-out and setting: under `N[C@@H](Cc1ccc(O)c(I)c1)C(=O)O` [MIT, Monoiodotyrosine, reference compound] stands “maximal inhibition”.
Consider `N[C@@H](Cc1ccc(O)c([N+](=O)[O-])c1)C(=O)O` [MNT, 3-L-nitrotyrosine, reference compound], for which the IC50 in series [1] (setting [3]) is below 0.01 µM. Further, the “inhibition of labeled-MIT deiodination” value in series [1] (setting [4]) is “maximal inhibition”. In series [2] (setting [5]), the DIT-urine amounted to 0.29 ± 0.06 ng/mL, the MIT-urine came to 1.94 ± 0.13 ng/mL, the MIT/DIT urine is 6,69 and the T3 is 0.27 ± 0.02 ng/mL. Further, in series [2] (setting [5]), the T4 was 25.35 ± 1.2 ng/mL, the TSH came out at 1.07 ± 0.07 mU/L and the UIC amounted to 198 ± 14.43 µg/L. In addition, in series [2] (setting [6]), the DIT-urine % variation is reported as -19%, the MIT-urine % variation entry was “+46%”, the “MIT/DIT urine % variation” value is given as “+80%” and the T3 % variation is -5%. In series [2] (setting [6]), the T4 % variation entry is “+8%”, the TSH % variation entry is recorded as “+7%” and the UIC % variation entry is listed as “+47%”.
Turning to `Oc1c(Cl)c(Cl)c(Cl)c(Cl)c1Cl` [PCP, Pentachlorophenol], the IC50 in series [1] (setting [3]) is around 25 µM. Besides, in series [1] (setting [7]), the inhibition at 10 µM came out at 22% and the inhibition at 100 µM worked out at 78%. Besides, the inhibition at 10 µM in series [1] (read-out: inhibition of labeled-MIT deiodination) was determined as 55%.
For `CC(C)(c1cc(Br)c(O)c(Br)c1)c1cc(Br)c(O)c(Br)c1` [TBBPA, Tetrabromobisphenol A], in series [1] (setting [3]), the IC50 was around 25 µM. Further, the inhibition at 10 µM in series [1] (dose-response inhibition assay, 10 µM, read-out: inhibition of Dehal1 activity) came out at 18%. For the same compound, the inhibition at 100 µM in series [1] (dose-response inhibition assay, 100 µM, read-out: inhibition of Dehal1 activity) is 78%. The inhibition at 10 µM in series [1] (general screen, compound at 10 µM, read-out: inhibition of labeled-MIT deiodination) was found to be 37%. The T3 result in series [2] (TBBPA 500 mg/kg b.w/day for 7 days, plasma) is “remained unchanged”. Also, in series [2] (setting [8]), the DIT-plasma was found to be 0.06 ± 0.01 ng/mL, the DIT-urine was 0.23 ± 0.04 ng/mL, the MIT-plasma is 0.21 ± 0.01 ng/mL and the MIT-urine worked out at 2.53 ± 0.11 ng/mL. Moreover, in series [2] (setting [8]), the MIT/DIT plasma is recorded as 3,5, the MIT/DIT urine is 11 and the UIC amounted to 170.6 ± 13.9 µg/L. In addition, in series [2] (setting [9]), the T4 is 14.45 ± 1.65 ng/mL and the TSH is on record as 1.3 ± 0.025 mU/L. For the same compound, in series [2] (setting [10]), the DIT-plasma % variation is reported as -62%, the DIT-urine % variation is reported as -36%, the MIT-urine % variation entry was “+73%” and the “MIT/DIT plasma % variation” value was “+250%”. Also, in series [2] (setting [10]), the “MIT/DIT urine % variation” value is “+172%” and the UIC % variation result was “+127%”. In series [2] (setting [11]), the T4 % variation is listed as -38% and the TSH % variation entry was “+23%”.

The IC50 is the concentration needed to halve the response being measured. Read a high IC50 as lower potency. As a reminder, the inhibition is the share of the control response that was lost under treatment.

These data come from patent EP4160211A1, “DETECTING THE EXPOSURE OF A SUBJECT TO A THYROID DISRUPTING CHEMICAL, EVEN BEFORE HYPOTHYROIDISM APPEARS” (Moreno Navarro, José Carlos, priority 2021, dated 2023).
